*1 amine or outer side, *2 acyl side, *3 side chain or, on linkers, in order; H or OH if unused. Where a SMILES comes first, the peptide text is derived from it. Bridges are numbered along the chain shown (N, C = ends). [ ]: non-standard residue; d: D form. X1 = O=C(CC1(S[*:2])CCCCC1)[*:1]
Tests used:
[1] = target: T1, vasopressin stimulated adenylate cyclase (Sus scrofa, UniProt P32307); assay: Vasopressin stimulated adenylate cyclase activity, hog kidney medullary membrane; assay type: biochemical; details: antagonism of vasopressin stimulated adenylate cyclase, read-out: In Vitro (Pig) Ki
T1 construct: from tissue; host or cells: hog kidney medullary membranes
T1 sequence (P32307 whole entry): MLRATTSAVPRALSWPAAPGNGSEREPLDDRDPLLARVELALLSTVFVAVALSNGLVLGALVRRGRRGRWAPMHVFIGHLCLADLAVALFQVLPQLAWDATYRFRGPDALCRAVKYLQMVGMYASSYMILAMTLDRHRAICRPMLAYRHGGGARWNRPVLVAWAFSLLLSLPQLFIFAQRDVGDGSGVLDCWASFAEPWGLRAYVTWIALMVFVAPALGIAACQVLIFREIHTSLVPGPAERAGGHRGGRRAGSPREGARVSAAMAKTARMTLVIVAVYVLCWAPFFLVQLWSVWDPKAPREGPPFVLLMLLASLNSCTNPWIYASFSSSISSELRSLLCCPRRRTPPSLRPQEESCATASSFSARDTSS
Procedure: (§1) Antagonistic activity toward the natural antidiuretic hormone (anti-ADH activity) is determined, in vitro, in the medullary tissue of hog or human kidneys and, in vivo, in the hydropenic rat. The in vitro assay procedures for vasopressin stimulated adenylate cyclase activation or vasopression binding activity are described by F. Stassen et al., J. Pharmacology and Experimental Therapeutics, 223, 50-54 (1982).
In the test procedure for assay of adenylate cyclase activity, the amount of ^32 P/cAMP formed in the absence of medullary membrane is determined (blank). The blank value is substracted from all experimental data. The compound is tested for its effect on basal adenylate cyclase activity and/or on vasopressin stimulated activity. Each determination is carried out in triplicate. The Ka value is derived from a Lineweaver-Burkeplot. Rel. Vmax =(Vmax drug/Vmax vasopressin)×100. Ki =I/[Ka'/Ka)-1] where I is the concentration of the antagonist, and Ka' and Ka are the concentrations of vasopressin required to give half-maximal activity of adenylate cyclase in the presence and absence of antagonist, respectively.

[2] = target: T2, vasopressin stimulated adenylate cyclase (Homo sapiens, UniProt P30518); assay: Vasopressin stimulated adenylate cyclase activity, human kidney medullary tissue; assay type: biochemical; details: read-out: In Vitro (Human) Ki
T2 construct: from tissue; host or cells: human kidney medullary membranes
T2 sequence (P30518 whole entry): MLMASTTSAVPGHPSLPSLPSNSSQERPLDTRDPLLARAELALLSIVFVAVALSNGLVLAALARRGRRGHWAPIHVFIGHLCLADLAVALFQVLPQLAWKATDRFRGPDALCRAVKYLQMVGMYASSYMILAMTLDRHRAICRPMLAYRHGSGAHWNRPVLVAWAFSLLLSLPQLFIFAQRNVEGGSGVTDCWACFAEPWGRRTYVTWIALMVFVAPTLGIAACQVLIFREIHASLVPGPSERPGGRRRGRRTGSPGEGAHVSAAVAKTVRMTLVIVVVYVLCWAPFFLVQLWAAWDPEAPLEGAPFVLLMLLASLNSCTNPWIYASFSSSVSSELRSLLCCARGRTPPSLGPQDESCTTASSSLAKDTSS
Procedure: as §1

[3] = target: T3, vasopressin receptors (V2 -receptors) (Sus scrofa, UniProt P32307); assay: 3H-vasopressin binding assay, hog kidney membranes; details: competitive inhibition of 3H-vasopressin binding, KB = IC50/(1+L/KD), read-out: In Vitro (Pig) KB
T3 construct: from tissue; host or cells: hog kidney medullary membranes
T3 sequence (P32307 whole entry): as the sequence (P32307 whole entry) above
Procedure: as §1
In the test procedure for binding assays, the amount of ^3 H-vasopressin bound in the absence and in the presence of an excess of vasopressin (7.5×10^-6 M) is measured in triplicate. These values represent total and non-specific binding, respectively. […] This is the average KD value determined on 3 preparations of hog kidney membranes.

hydropenic rat = assay: Hydropenic rat screen (anti-ADH activity in vivo); details: estimated dose delivered ip which reduces Uosm from hydropenic levels to 300 mOsmoles/kg H2O; male rats
Procedure: as §1
The assay for anti-ADH activity is the hydropenic rat protocol is described below:
Food and water are removed from male rats approximately 18 hours prior to testing. Animals are housed 4 per metabolism cage. At 0 hour, the test compound is administered intraperitoneally to the test group and an equivalent volume of vehicle is administered to both control groups (fasted and non-fasted). Urine volume and osmolality are measured every hour for 4 hours. Test values are recorded as ml of urine excreted (cumulative), mEq/rat electrolyte excreted, mg/rat urea excreted, and osmolality in milli-Osmoles/kg H2 O. A tolerance test is used to determine significance. ED300 is defined as the dose of compound (μg/kg) required to lower urine osmolality to 300 m-Osmoles/kg.

| Ki [1] [nM] | Ki [2] [nM] | Kb [3] [nM] | SMILES | In Vivo (Rat) ED300 (hydropenic rat) [mg/kg] |
| --- | --- | --- | --- | --- |
| 2.7 | 9.8 | 17 | CCOc1ccc(C[C@H]2NC(=O)CC3(CCCCC3)SSC[C@@H](C(=O)N[C@@H](CCCN=C(N)N)C(=O)NCC(N)=O)NC(=O)[C@H](CC(N)=O)NC(=O)[C@H](C(C)C)NC(=O)[C@H](Cc3ccccc3)NC2=O)cc1 [A] ([dY](Et)FVNCRG-NH2; linker N-5 via X1) | – |
| – | – | – | CCOc1ccc(C[C@H]2NC(=O)CC3(CCCCC3)SSC[C@@H](C(=O)N3CCC[C@H]3C(=O)N[C@@H](CCCNC(=N)N)C(=O)NCC(N)=O)NC(=O)[C@H](CC(N)=O)NC(=O)[C@H](C(C)C)NC(=O)[C@H](Cc3ccccc3)NC2=O)cc1 [B, [mercapto-β,cyclopentamethylenepropionic acid)2-(O--ethylD-tyrosine)-4-valine-8-argininevasopressin] ([dY](Et)FVNCPRG-NH2; linker N-5 via X1 (inferred); C-terminus assumed) | 0.011 |
